Compound | melting point
CC(C)(C)OC(=O)NN=C(c1ccccc1)c1ccncc1 | 134 °C
N#Cc1cnc2cc3ccccc3cc2c1Cl | 253 to 255 °C
c1ccc(-c2nc3ccccc3n3cncc23)cc1 | 165 to 167 °C
FC(F)(F)COc1nc(-c2ccccc2)c2cc(Cl)ccc2n1 | 185 to 186 °C
CC(C)(CCc1cc2cc(Cl)ccc2n1S(=O)(=O)c1ccccc1)C(=O)O | 242 °C
CN(C)Cc1nnc2n1-c1ccccc1C(c1ccccc1)=NC2 | 181 to 182 °C
CC(=O)O[C@@H]1[C@@H](OC(C)=O)[C@H](C)O[C@@H](OC[C@H]2O[C@H](Br)[C@H](OC(C)=O)[C@@H](OC(C)=O)[C@@H]2OC(C)=O)[C@@H]1OC(C)=O | 120 to 125 °C
Cc1ccc(S(=O)(=O)c2nc(C)c(Br)c(C)n2)cc1 | 157 to 158 °C
Cc1ccc2c(Cl)cc(C(=O)NCCCc3ccccc3)c(O)c2n1 | 109 to 111 °C
CC(=O)N[C@H]1c2cc(C#N)ccc2OC(C)(C)[C@H]1O (relative stereo) | 193 to 194 °C
c1csc(-c2cnc(-c3cccs3)s2)c1 | 93 to 93.8 °C
CC1=C(Cc2ccc(-c3ccc(N(C)C)cc3)cc2)C(=O)c2ccccc2C1=O | 170 to 171 °C
CC(=O)OC1CSC(Oc2cncc(-c3ccc(C)o3)c2)C(OC(C)=O)C1OC(C)=O (stereo not drawn) | 124 °C
CC(=O)n1cc(C2=CCN(C)CC2)c2cc(F)ccc21 | 126 to 128 °C
Cc1csc(-c2ncccc2C(=O)c2ccccn2)c1 | 122 to 123 °C
CN1CCC(=O)N(c2ccccc2Cl)C1=O | 120 to 123 °C
C#CCOC(=O)C=Cc1csc(Cl)c1Cl | 84 to 86 °C
CC(C)CC(=O)Nc1cc(-c2ccnc3c(C(=O)c4cccs4)cnn23)cs1 | 234 to 235 °C
Cc1cc2c(cc1C)C(c1ccccc1)(C(F)(F)C(F)(F)F)c1cc3c(cc1O2)Oc1cc(C)c(C)cc1C3(c1ccccc1)C(F)(F)C(F)(F)F (stereo not drawn) | 228 to 233 °C
CC(C)(C)OC(=O)OCC(COC(=O)OC(C)(C)C)OCn1cnc2c(=O)[nH]c(N)nc21 | 192 to 193 °C

Compound | melting point
O=C(O)CNC(=O)c1ccc(OCc2ccccc2)cc1OCc1ccccc1 | 168 to 169 °C
FC1(N2CCOCC2)C=C(Cl)C=CC1NC(=S)C1C=CCCC1 (stereo not drawn) | 86 to 88 °C
Cc1ccnc(NC(c2ccc([N+](=O)[O-])cc2)c2ccc3cccnc3c2O)n1 (stereo not drawn) | 136 to 145 °C
O=C(Oc1cccc2ccccc12)c1ccc(CCl)cc1 | 93 to 96 °C
CC(C)CP1C(O)C(O)P(CC(C)C)C(O)C1O (stereo not drawn) | 173 to 175 °C
Cc1cccc(CC(Nc2ccccc2)C(=O)NC(C#N)COCc2cccc(C(=O)O)c2)c1 (stereo not drawn) | 135 to 137 °C
CC(C#Cc1ccc(C=Cc2ccccn2)o1)N(O)C(N)=O (stereo not drawn) | 175 °C
Nc1ccc(-n2ccn(-c3ccc(OC(F)(F)C(F)F)cc3)c2=O)cc1 | 150 to 151 °C
COC(=O)c1cccc(C)c1[N+](=O)[O-] | 72 °C
O=C(NCc1cc(C(F)(F)F)cc(C(F)(F)F)c1)c1cnc(Cl)nc1Cl | 144 to 145 °C
O=C(Cc1ccc(O)cc1)c1ccc(O)cc1O | 186 °C
CCCCCCc1c(Cl)nc(NC=O)nc1Cl | 80 to 81 °C
O=S(Cc1ccccc1)c1ncc(Cl)cn1 (stereo not drawn) | 92 °C
C=CC(=O)O[C@H]1CC[C@H](c2cccc(F)c2F)CC1 | 72.9 to 73.6 °C
CC(C)N1CC2(COc3ccc(N(C)C)cc3OC2)OC1=O (stereo not drawn) | 135 to 138 °C
Cc1ccncc1Cn1nnnc1-c1cccc(Cl)c1Cl | 154 to 156 °C
CCCCN1C(=O)CC(=O)NC1=O | 107 to 108 °C
CCOc1nc(N)nc(C2CC2)n1 | 103 to 106 °C
CN1C(=O)C(NC(=O)c2cc3ccccc3[nH]2)C(=O)N(c2ccccc2)c2cc(Cl)ccc21 (stereo not drawn) | 280 °C

The remaining lines, values ahead:

melting point | Compound
136 to 137 °C | CNC(=O)Cc1ccc2ccn(C3CCN(CCc4ccccc4F)CC3)c2c1
118 to 120 °C | CCC(=O)NCC(COS(C)(=O)=O)c1cccc2ccc(OC)cc12 (stereo not drawn)
170 to 172 °C | CC1=NCCN1Cc1ccc(CCNC(=O)c2ccc(-c3ccc(Cl)cc3)cc2)cc1
153 to 155 °C | CCC(Oc1ccc(F)cc1F)C(=O)OC1CC(O)C=C2C=CC(C)C(CCC3CC(O)CC(=O)O3)C21 (mixture of isomers)
124 to 127 °C | CS(=O)(=O)Nc1ccc(Sc2ccc([N+](=O)[O-])cc2)cc1Oc1ccc(F)cc1F
100 to 102 °C | COC(=O)c1ccc(CNC(C)=O)c([N+](=O)[O-])c1
73 to 74 °C | Cc1ccc(C(=O)OC2CCN(Cc3ccccc3)CC2)cc1
257 to 259 °C | Cn1cc(C2(c3c4n(c5ccccc35)CCCCC4)CC(=O)OC2=O)c2ccccc21 (stereo not drawn)
156 to 157 °C | CN1CCc2c(-c3ccc(F)cc3)c(C(=O)N(C)Cc3cc(C(F)(F)F)cc(C(F)(F)F)c3)n(C)c(=O)c2C1
258 °C | O=C(O)c1ncn(Cc2ccc(Cl)c(Cl)c2)c1C(=O)O
184 to 186 °C | O=C(c1[nH]c2ccc(F)cc2c1Sc1ccccc1)N1CCCC1
207 to 209 °C | CNC(=O)CC1CN=C(c2cc3cc(Oc4ccc(S(C)(=O)=O)cn4)cc(OC)c3[nH]2)S1 (stereo not drawn)
183 °C | CC(=O)C(C)Oc1cc(-n2c(=O)cc(C(F)(F)F)[nH]c2=O)c(F)cc1Br (stereo not drawn)
81 to 82 °C | COC(=O)C(C)c1ccc2c(c1)CC(=O)c1ccccc1S2 (stereo not drawn)
208 to 210 °C | CC(C)(C)C(=O)Oc1ccc(CCNc2nc(N)n3nc(-c4ccco4)nc3n2)cc1
259 to 262 °C | CCn1c2s[nH]c(=O)c2c(=O)c2cc(F)c(N3CCN(c4ncccn4)CC3)c(OC(F)F)c21
> 300 °C | CCNc1nc(C)c(-c2ccnc(Nc3cc(Cl)c(N4CCOCC4)c(Cl)c3)n2)s1
181 to 182 °C | CCN(CC)CCNc1ccc(CO)c2sc3ccc(O)cc3c(=O)c12
225 to 226 °C | CSc1nccn1-c1nc(-c2ccc(Cl)cc2)c(CCC(=O)O)o1
203 to 206 °C | Cc1c(N2CC[C@@H](C3(NC(=O)OC(C)(C)C)CC3)C2)cc(O)c2c(=O)c(C(=O)O)cn([C@@H]3C[C@@H]3F)c12
281 °C | CCn1c(N)c(C(N)=O)c(=O)c2cnc(Nc3ccc(C(=O)N4CCN(C)CC4)cc3)nc21
228 to 229 °C | CCNC(=O)c1ccc(N2CCN(Cc3cc4c(c(OC)c3)OC(C)C(=O)N4)CC2)c(F)c1 (stereo not drawn)
143 to 144 °C | CCCc1c(OCCCOc2ccc(C(=O)CCC(=O)O)c(Cl)c2)ccc(C(C)=O)c1O
73 to 75 °C | COC(=O)C1=C(CF)NC(C)=C(C(=O)OC(C)C)C1c1cccc(Cl)c1C (stereo not drawn)
93.5 to 95 °C | COC(=O)c1ccccc1C1CC(c2ccccc2)=NO1 (stereo not drawn)
160 °C | CCC(=O)N1CCN(C(=O)OC2C3=C(SCC(OC)CS3)C(=O)N2c2ccc(Cl)cn2)CC1 (stereo not drawn)
120 to 122 °C | CC(C)CCOCc1cccc(N2N=C(C(N)=O)NC2c2ccccc2F)c1 (stereo not drawn)
117 to 121 °C | COC(=O)CCCc1cc2cc(C(F)(F)F)ccc2n1S(=O)(=O)c1ccc2ncsc2c1
175 °C | CC(C)c1cccc(S(=O)(=O)n2c(Cc3ccc(C(=O)O)cc3)cc3cc(C(F)(F)F)ccc32)c1

— a melting point compilation (Tetko et al.; mined from patent text by program, amines drawn as free bases though some values may be those of a salt)
